Literature values in US20200197364A1, “DIHYDROMYRICETIN NANOPARTICLE FORMULATIONS” (priority 2017, published 2020).

Key:
[1] = in vivo
[2] = through intestinal mucosa
[3] = data collected by EPA

In the case of `O=C1c2c(O)cc(O)cc2O[C@H](c2cc(O)c(O)c(O)c2)[C@H]1O` [DHM, Dihydromyricetin], the Oral bioavailability [1] is listed as “less than 5%”, the Permeability [2] is listed as “low” and the “Log P” value [3] is listed as “approximately 1.31”.
